# Like-named read-outs stand apart in the source and are kept apart here.
# Tests used:
# human P2X7 receptor = human P2X7 receptor (Homo sapiens (Human), UniProt Q99572); experiment: Pore permeation assay (YO PRO dye uptake); format: cell-based
# [1] = molecular target: P2X7 (IL-1β release from THP-1 cells) (Homo sapiens (Human), UniProt Q99572); experiment: IL-1β release assay; format: cell-based
# How it was run: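 THP-1 cells were differentiated with PMA 0.5 μM and primed 4 h with LPS 10 ng/ml. They were then pre-incubated 20 min with compound at 37° C and stimulated 30 min with BzATP 0.8 mM. Mature IL-1β released into the supernatant was quantified by sandwich ELISA.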
# [2] = HEK293 transfected with human P2X7, BzATP 10 uM, YO PRO dye uptake, read-out: hP2X7 IC50
# Sequence of P2X7 (IL-1β release from THP-1 cells) (Q99572 whole entry): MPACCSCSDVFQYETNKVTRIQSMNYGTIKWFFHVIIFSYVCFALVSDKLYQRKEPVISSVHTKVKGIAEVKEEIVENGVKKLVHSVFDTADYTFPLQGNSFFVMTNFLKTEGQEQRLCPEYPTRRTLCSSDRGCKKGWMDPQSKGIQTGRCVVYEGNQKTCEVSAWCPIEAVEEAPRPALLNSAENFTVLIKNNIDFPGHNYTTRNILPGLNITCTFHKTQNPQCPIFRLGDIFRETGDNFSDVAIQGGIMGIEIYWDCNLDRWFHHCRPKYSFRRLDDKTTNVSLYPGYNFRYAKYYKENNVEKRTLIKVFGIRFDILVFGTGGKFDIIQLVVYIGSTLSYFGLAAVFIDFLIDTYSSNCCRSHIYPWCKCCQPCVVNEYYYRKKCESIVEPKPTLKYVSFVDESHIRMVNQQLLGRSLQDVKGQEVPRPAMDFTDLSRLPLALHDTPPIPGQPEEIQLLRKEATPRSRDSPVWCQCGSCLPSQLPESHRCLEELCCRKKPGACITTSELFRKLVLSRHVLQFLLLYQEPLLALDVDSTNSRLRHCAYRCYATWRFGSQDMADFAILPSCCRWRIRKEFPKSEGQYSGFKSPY
# Sequence of human P2X7 receptor (Q99572 whole entry): as above
Structure (SMILES),IC50 (human P2X7 receptor) [nM],IC50 [1] [nM],IC50 (human P2X7 receptor; [2]) [nM]
"O=C(NCC1CCC(F)(F)CC1)c1cn(CCN2CCCCC2)c2cccc(Cl)c12 [Compound 193, 4-chloro-N-((4,4-difluorocyclohexyl)methyl)-1-(2-(piperidin-1-yl)ethyl)-1H-indole-3-carboxamide]",10 to 100,10 to 100,–
"O=C(NCC1CCC(F)(F)CC1)c1cn(CC(=O)N2CCCCC2)c2cccc(Cl)c12 [Compound 195, 4-Chloro-1-(2-oxo-2-piperidin-1-yl-ethyl)-1H-indole-3-carboxylic acid (4,4-difluoro-cyclohexylmethyl)-amide]",10 to 100,101 to 500,–
"CC(C)N1CCCC1Cn1cc(C(=O)NCC2CCC(F)(F)CC2)c2c(Cl)cccc21 (stereo not shown) [Compound 196, 4-chloro-N-((4,4-difluorocyclohexyl)methyl)-1-((1-isopropylpyrrolidin-2-yl)methyl)-1H-indole-3-carboxamide]",10 to 100,101 to 500,–
"O=C(NCC1CCC(F)(F)CC1)c1cn(CC2CCCN2C2CC2)c2cccc(Cl)c12 (stereo not shown) [Compound 197, 4-chloro-1-((1-cyclopropylpyrrolidin-2-yl)methyl)-N-((4,4-difluorocyclohexyl)methyl)-1H-indole-3-carboxamide]",10 to 100,10 to 100,–
"O=C(NCC1CCC(F)(F)CC1)c1cn(CCO)c2cccc(C(F)(F)F)c12 [Compound 198, N-((4,4-difluorocyclohexyl)methyl)-1-(2-hydroxyethyl)-4-(trifluoromethyl)-1H-indole-3-carboxamide]",101 to 500,10 to 100,–
COCCn1cc(C(=O)NCC2CCC(F)(F)CC2)c2c(C(F)(F)F)cccc21 [Compound 199],101 to 500,101 to 500,–
"CC(C(=O)N(C)C)n1cc(C(=O)NCC2CCC(F)(F)CC2)c2c(Cl)cccc21 (stereo not shown) [Compound 200, 4-chloro-N-((4,4-difluorocyclohexyl)methyl)-1-(1-(dimethylamino)-1-oxopropan-2-yl)-1H-indole-3-carboxamide]",–,10 to 100,< 10
"CC(C)N(C)C(=O)Cn1cc(C(=O)NCC2CCC(F)(F)CC2)c2c(Cl)cccc21 [Compound 203, 4-Chloro-1-[(isopropyl-methyl-carbamoyl)-methyl]-1H-indole-3-carboxylic acid (4,4-difluoro-cyclohexylmethyl)-amide]",10 to 100,101 to 500,–
"CN(C)C(=O)Cn1cc(C(=O)NCC2(O)CCC(F)(F)CC2)c2c(Cl)cccc21 [Compound 205, 4-Chloro-1-dimethylcarbamoylmethyl-1H-indole-3-carboxylic acid (4,4-difluoro-1-hydroxy-cyclohexylmethyl)-amide]",–,10 to 100,< 10
"CCN(CC)C(=O)Cn1cc(C(=O)NCC2CCC(F)(F)CC2)c2c(Cl)cccc21 [Compound 207, 4-Chloro-1-diethylcarbamoylmethyl-1H-indole-3-carboxylic acid (4,4-difluoro-cyclohexylmethyl)-amide]",10 to 100,101 to 500,–
"CN(C)C(=O)Cn1cc(C(=O)NCC2CCC(F)(F)CC2)c2c(Cl)cccc21 [Compound 208, 4-Chloro-1-dimethylcarbamoylmethyl-1H-indole-3-carboxylic acid (4,4-difluoro-cyclohexylmethyl)-amide]",–,10 to 100,< 10

# — patent US10323000B2, “Indole derivatives and their use in neurodegenerative diseases” (priority 2014, dated 2019)
